Columns and labels:
Type in all cases: cell-based
[1] = molecular target: T1, WEE1 (Homo sapiens, UniProt P30291+Q96SW2); assay: Western-blot assay, substrate protein degradation in hPBMCs: WEE1; conditions: for substrate protein remaining % WEE1: 24 hours of compound treatment, 50 nM and 500 nM; for WEE1 substrate protein remaining %: compounds at 50 nM and 500 nM, 24 hours
T1 construct: effects of the compounds of the present disclosure on the expression of target proteins in cells; endogenous in cells; host or cells: human PBMCs (hPBMCs)

[2] = molecular target: T2, CK1α (Homo sapiens, UniProt P48729+Q96SW2); assay: Western-blot assay, substrate protein degradation in hPBMCs: CK1α; conditions: for substrate protein remaining % CK1α: 24 hours of compound treatment, 50 nM and 500 nM; for CK1α substrate protein remaining %: compounds at 50 nM and 500 nM, 24 hours
T2 construct: effects of the compounds of the present disclosure on the expression of target proteins in cells; endogenous in cells; host or cells: human PBMCs (hPBMCs)

[3] = molecular target: T3, IKZF2 (Homo sapiens, UniProt Q96SW2+Q9UKS7); assay: Western-blot assay, substrate protein degradation in hPBMCs: IKZF2; conditions: for substrate protein remaining % IKZF2: 24 hours of compound treatment, 50 nM and 500 nM; for IKZF2 substrate protein remaining %: compounds at 50 nM and 500 nM, 24 hours
T3 construct: effects of the compounds of the present disclosure on the expression of target proteins in cells; endogenous in cells; host or cells: human PBMCs (hPBMCs)

[4] = molecular target: T4, IKZF3 (Homo sapiens, UniProt Q96SW2+Q9UKT9); assay: Western-blot assay, substrate protein degradation in hPBMCs: IKZF3; conditions: for substrate protein remaining % IKZF3: 24 hours of compound treatment, 50 nM and 500 nM; for IKZF3 substrate protein remaining %: compounds at 50 nM and 500 nM, 24 hours
T4 construct: effects of the compounds of the present disclosure on the expression of target proteins in cells; endogenous in cells; host or cells: human PBMCs (hPBMCs)

[5] = molecular target: T5, IKZF1 (Homo sapiens, UniProt Q13422+Q96SW2); assay: Western-blot assay, substrate protein degradation in hPBMCs: IKZF1; conditions: for substrate protein remaining % IKZF1: 24 hours of compound treatment, 50 nM and 500 nM; for IKZF1 substrate protein remaining %: compounds at 50 nM and 500 nM, 24 hours
T5 construct: effects of the compounds of the present disclosure on the expression of target proteins in cells; endogenous in cells; host or cells: human PBMCs (hPBMCs)

[6] = molecular target: T6, GSPT1 (Homo sapiens, UniProt P15170+Q96SW2); assay: Western-blot assay, substrate protein degradation in hPBMCs: GSPT1; conditions: for substrate protein remaining % GSPT1: 24 hours of compound treatment, 50 nM and 500 nM; for GSPT1 substrate protein remaining %: compounds at 50 nM and 500 nM, 24 hours
T6 construct: effects of the compounds of the present disclosure on the expression of target proteins in cells; endogenous in cells; host or cells: human PBMCs (hPBMCs)
T6 sequence (P15170 whole entry): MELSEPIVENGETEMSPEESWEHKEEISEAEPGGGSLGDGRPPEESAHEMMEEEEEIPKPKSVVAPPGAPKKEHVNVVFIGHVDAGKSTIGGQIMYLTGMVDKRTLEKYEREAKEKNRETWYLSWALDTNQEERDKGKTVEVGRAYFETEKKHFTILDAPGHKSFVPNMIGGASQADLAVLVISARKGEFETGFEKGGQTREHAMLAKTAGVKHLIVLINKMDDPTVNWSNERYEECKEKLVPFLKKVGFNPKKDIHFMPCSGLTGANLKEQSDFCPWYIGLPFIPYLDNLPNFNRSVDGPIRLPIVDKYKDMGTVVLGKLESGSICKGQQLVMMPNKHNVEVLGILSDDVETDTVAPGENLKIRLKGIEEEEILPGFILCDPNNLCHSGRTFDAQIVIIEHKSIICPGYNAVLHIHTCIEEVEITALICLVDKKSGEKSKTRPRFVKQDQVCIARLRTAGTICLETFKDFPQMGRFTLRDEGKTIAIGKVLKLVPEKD
T6 sequence (Q96SW2 whole entry): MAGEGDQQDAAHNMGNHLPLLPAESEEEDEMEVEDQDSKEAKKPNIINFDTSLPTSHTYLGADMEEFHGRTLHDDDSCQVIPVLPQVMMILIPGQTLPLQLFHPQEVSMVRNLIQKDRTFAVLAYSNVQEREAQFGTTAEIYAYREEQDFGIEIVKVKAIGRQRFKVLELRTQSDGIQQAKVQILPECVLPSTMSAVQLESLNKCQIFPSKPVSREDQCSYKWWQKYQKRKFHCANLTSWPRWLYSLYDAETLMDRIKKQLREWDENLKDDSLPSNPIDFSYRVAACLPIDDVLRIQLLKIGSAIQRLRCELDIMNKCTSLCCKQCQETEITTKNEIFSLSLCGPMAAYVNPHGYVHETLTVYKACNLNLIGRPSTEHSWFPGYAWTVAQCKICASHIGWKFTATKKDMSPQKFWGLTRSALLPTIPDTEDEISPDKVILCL
T6 sequence (Q16531 whole entry partner): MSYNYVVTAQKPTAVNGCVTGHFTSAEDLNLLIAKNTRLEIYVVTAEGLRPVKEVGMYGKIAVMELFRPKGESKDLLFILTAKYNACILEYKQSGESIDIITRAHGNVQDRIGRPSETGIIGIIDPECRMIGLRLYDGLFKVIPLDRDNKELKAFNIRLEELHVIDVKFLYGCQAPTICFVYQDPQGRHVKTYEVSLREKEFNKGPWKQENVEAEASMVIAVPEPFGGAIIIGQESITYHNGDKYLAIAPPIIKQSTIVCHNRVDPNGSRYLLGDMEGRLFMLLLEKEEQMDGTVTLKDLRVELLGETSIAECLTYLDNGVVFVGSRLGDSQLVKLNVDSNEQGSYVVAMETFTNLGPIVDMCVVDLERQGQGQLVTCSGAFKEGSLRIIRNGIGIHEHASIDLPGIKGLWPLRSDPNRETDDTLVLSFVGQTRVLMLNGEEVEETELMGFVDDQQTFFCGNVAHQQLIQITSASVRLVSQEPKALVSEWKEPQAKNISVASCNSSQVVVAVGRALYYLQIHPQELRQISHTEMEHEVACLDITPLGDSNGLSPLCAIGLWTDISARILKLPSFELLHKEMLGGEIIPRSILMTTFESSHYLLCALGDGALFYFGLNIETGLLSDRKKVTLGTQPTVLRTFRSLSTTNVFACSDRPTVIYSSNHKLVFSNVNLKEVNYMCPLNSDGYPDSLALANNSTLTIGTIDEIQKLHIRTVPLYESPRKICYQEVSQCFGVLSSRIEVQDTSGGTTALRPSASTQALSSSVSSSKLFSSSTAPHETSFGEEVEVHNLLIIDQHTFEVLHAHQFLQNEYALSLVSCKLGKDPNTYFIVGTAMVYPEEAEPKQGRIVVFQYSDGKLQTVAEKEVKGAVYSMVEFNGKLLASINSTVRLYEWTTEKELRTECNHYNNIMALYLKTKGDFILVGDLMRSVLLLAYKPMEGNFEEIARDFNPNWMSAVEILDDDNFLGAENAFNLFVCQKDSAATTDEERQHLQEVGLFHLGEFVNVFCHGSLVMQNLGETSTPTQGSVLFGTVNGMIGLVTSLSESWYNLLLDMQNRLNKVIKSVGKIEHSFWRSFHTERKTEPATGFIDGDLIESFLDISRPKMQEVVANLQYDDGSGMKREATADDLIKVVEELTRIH

T4 sequence (Q9UKT9 whole entry): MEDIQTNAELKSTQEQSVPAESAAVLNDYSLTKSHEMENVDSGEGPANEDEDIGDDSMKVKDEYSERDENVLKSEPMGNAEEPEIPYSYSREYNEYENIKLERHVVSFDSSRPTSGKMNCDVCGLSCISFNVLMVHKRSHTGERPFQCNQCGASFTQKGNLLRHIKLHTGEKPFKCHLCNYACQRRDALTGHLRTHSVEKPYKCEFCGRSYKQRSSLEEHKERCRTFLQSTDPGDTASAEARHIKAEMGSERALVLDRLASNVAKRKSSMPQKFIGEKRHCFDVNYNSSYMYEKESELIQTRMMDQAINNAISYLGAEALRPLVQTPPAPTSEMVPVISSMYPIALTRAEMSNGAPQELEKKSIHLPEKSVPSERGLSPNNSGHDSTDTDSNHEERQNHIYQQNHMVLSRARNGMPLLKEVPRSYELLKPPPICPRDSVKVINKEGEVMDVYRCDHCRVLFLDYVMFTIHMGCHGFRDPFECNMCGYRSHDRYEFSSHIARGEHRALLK
T4 sequence (Q96SW2 whole entry): as the sequence (Q96SW2 whole entry) above
T4 sequence (Q16531 whole entry partner): as the sequence (Q16531 whole entry partner) above
T1 sequence (P30291 whole entry): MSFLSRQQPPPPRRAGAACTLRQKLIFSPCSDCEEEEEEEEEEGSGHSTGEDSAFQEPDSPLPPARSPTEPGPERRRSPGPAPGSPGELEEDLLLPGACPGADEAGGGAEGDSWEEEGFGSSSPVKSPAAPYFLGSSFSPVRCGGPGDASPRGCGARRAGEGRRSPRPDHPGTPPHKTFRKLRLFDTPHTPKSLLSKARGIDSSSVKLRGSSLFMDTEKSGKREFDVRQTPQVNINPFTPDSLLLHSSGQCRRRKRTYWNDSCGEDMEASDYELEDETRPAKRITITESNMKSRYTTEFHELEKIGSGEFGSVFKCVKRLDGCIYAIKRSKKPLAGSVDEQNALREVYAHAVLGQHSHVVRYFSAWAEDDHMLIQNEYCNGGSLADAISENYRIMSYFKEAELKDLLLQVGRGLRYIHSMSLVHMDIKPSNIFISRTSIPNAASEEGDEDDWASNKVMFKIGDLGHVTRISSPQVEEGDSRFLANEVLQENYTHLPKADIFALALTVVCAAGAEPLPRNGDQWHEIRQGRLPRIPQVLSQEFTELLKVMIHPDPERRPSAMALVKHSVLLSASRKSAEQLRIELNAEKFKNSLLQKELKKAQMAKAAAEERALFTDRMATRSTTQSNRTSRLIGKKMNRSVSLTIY
T1 sequence (Q96SW2 whole entry): as the sequence (Q96SW2 whole entry) above
T1 sequence (Q16531 whole entry partner): as the sequence (Q16531 whole entry partner) above
T2 sequence (P48729 whole entry): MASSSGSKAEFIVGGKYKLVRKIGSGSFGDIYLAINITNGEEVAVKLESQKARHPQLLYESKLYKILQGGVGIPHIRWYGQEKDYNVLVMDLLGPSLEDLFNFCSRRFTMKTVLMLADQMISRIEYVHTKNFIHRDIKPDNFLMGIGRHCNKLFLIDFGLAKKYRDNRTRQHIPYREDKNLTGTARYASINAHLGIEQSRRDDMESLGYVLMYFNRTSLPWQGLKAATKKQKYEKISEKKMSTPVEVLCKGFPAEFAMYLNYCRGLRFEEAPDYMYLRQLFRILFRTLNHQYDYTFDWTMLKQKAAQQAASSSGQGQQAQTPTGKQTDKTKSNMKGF
T2 sequence (Q96SW2 whole entry): as the sequence (Q96SW2 whole entry) above
T2 sequence (Q16531 whole entry partner): as the sequence (Q16531 whole entry partner) above
T5 sequence (Q13422 whole entry): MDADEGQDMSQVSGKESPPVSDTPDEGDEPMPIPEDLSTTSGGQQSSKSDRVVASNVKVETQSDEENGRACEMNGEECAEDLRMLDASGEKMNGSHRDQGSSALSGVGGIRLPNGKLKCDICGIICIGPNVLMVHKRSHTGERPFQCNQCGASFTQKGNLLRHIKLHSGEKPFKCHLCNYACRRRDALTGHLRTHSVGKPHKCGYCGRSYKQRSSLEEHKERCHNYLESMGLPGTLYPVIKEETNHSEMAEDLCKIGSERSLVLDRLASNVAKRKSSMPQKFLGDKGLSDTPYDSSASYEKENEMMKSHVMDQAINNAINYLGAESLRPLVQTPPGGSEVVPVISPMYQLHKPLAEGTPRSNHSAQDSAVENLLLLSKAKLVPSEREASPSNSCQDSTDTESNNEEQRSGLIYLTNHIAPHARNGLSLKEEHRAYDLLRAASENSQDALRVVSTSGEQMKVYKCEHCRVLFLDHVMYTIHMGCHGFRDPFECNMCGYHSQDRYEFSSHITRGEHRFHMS
T5 sequence (Q96SW2 whole entry): as the sequence (Q96SW2 whole entry) above
T5 sequence (Q16531 whole entry partner): as the sequence (Q16531 whole entry partner) above

Compound	substrate protein remaining % WEE1 [1]	substrate protein remaining % CK1α [2]	substrate protein remaining % IKZF2 [3]	substrate protein remaining % IKZF3 [4]	substrate protein remaining % IKZF1 [5]	substrate protein remaining % GSPT1 [6]	WEE1 substrate protein remaining % [1]	CK1α substrate protein remaining % [2]	IKZF2 substrate protein remaining % [3]	IKZF3 substrate protein remaining % [4]	IKZF1 substrate protein remaining % [5]	GSPT1 substrate protein remaining % [6]
O=C1CCN(N2Cc3cc(CN4CCC(c5ccoc5)CC4)ccc3C2=O)C(=O)N1 [GT-07375, 1-(5-((4-(furan-3-yl)piperidin-1-yl)methyl)-1-oxoisoindolin-2-yl)dihydropyrimidine-2,4(1H,3H)-dione]	B (80%< substrate protein remaining %≤ 100%)	A (0% ≤ substrate protein remaining % ≤ 80%)	B (80%< substrate protein remaining %≤ 100%)	B (80%< substrate protein remaining %≤ 100%)	B (80%< substrate protein remaining %≤ 100%)	A (0% ≤ substrate protein remaining % ≤ 80%)						
O=C1CCN(N2C(=O)c3ccc(CN4CC=C(c5ccnc6cc(F)ccc56)CC4)cc3C2=O)C(=O)N1 [GT-05261, 2-(2,4-dioxotetrahydropyrimidin-1(2H)-yl)-5-((4-(7-fluoroquinolin-4-yl)-3,6-dihydropyridin-1(2H)-yl)methyl)isoindoline-1,3-dione]							B ("B" is defined as 80%< substrate protein remaining %≤ 100%)	B ("B" is defined as 80%< substrate protein remaining %≤ 100%)	A ("A" is defined as 0% ≤ substrate protein remaining % ≤ 80%)	B ("B" is defined as 80%< substrate protein remaining %≤ 100%)	B ("B" is defined as 80%< substrate protein remaining %≤ 100%)	B ("B" is defined as 80%< substrate protein remaining %≤ 100%)
O=C1CCN(N2C(=O)c3ccc(CN4CC=C(c5c[nH]c6cc(F)ccc56)CC4)cc3C2=O)C(=O)N1 [GT-07580, 2-(2,4-dioxotetrahydropyrimidin-1(2H)-yl)-5-((4-(6-fluoro-1H-indol-3-yl)-3,6-dihydropyridin-1(2H)-yl)methyl)isoindoline-1,3-dione]	A (0% ≤ substrate protein remaining % ≤ 80%)	B (80%< substrate protein remaining %≤ 100%)	A (0% ≤ substrate protein remaining % ≤ 80%)	A (0% ≤ substrate protein remaining % ≤ 80%)	A (0% ≤ substrate protein remaining % ≤ 80%)	A (0% ≤ substrate protein remaining % ≤ 80%)						
O=C1CCN(N2C(=O)c3ccc(CN4CCN(c5nccc(F)c5F)CC4)cc3C2=O)C(=O)N1 [GT-07162, 5-((4-(3,4-difluoropyridin-2-yl)piperazin-1-yl)methyl)-2-(2,4-dioxotetrahydropyrimidin-1(2H)-yl)isoindoline-1,3-dione]							B ("B" is defined as 80%< substrate protein remaining %≤ 100%)	A ("A" is defined as 0% ≤ substrate protein remaining % ≤ 80%)	A ("A" is defined as 0% ≤ substrate protein remaining % ≤ 80%)	B ("B" is defined as 80%< substrate protein remaining %≤ 100%)	B ("B" is defined as 80%< substrate protein remaining %≤ 100%)	A ("A" is defined as 0% ≤ substrate protein remaining % ≤ 80%)
O=C1CCN(N2C(=O)c3ccc(CN4CCC(c5cccc6c(F)cccc56)CC4)cc3C2=O)C(=O)N1 [GT-07686, 2-(2,4-dioxotetrahydropyrimidin-1(2H)-yl)-5-((4-(5-fluoronaphthalen-1-yl)piperidin-1-yl)methyl)isoindoline-1,3-dione]	B (80%< substrate protein remaining %≤ 100%)	B (80%< substrate protein remaining %≤ 100%)	B (80%< substrate protein remaining %≤ 100%)	B (80%< substrate protein remaining %≤ 100%)	B (80%< substrate protein remaining %≤ 100%)	A (0% ≤ substrate protein remaining % ≤ 80%)						
O=C1CCN(N2C(=O)c3ccc(CN4CCC(c5cccc(C(F)(F)F)c5)CC4)cc3C2=O)C(=O)N1 [GT-06880, 2-(2,4-dioxotetrahydropyrimidin-1(2H)-yl)-5-((4-(3-(trifluoromethyl)phenyl)piperidin-1-yl)methyl)isoindoline-1,3-dione]							A ("A" is defined as 0% ≤ substrate protein remaining % ≤ 80%)	B ("B" is defined as 80%< substrate protein remaining %≤ 100%)	B ("B" is defined as 80%< substrate protein remaining %≤ 100%)	B ("B" is defined as 80%< substrate protein remaining %≤ 100%)	B ("B" is defined as 80%< substrate protein remaining %≤ 100%)	B ("B" is defined as 80%< substrate protein remaining %≤ 100%)
O=C1CCN(N2C(=O)c3ccc(CN4CCN(c5c(Cl)cncc5Cl)CC4)cc3C2=O)C(=O)N1 [GT-07038, 5-((4-(3,5-dichloropyridin-4-yl)piperazin-1-yl)methyl)-2-(2,4-dioxotetrahydropyrimidin-1(2H)-yl)isoindoline-1,3-dione]							A ("A" is defined as 0% ≤ substrate protein remaining % ≤ 80%)	A ("A" is defined as 0% ≤ substrate protein remaining % ≤ 80%)	A ("A" is defined as 0% ≤ substrate protein remaining % ≤ 80%)	A ("A" is defined as 0% ≤ substrate protein remaining % ≤ 80%)	A ("A" is defined as 0% ≤ substrate protein remaining % ≤ 80%)	A ("A" is defined as 0% ≤ substrate protein remaining % ≤ 80%)
O=C1CCN(N2Cc3cc(CN4CCC(N5CCCc6cc(F)ccc65)CC4)ccc3C2=O)C(=O)N1 [GT-07584, 1-(5-((4-(6-fluoro-3,4-dihydroquinolin-1(2H)-yl)piperidin-1-yl)methyl)-1-oxoisoindolin-2-yl)dihydropyrimidine-2,4(1H,3H)-dione]	A (0% ≤ substrate protein remaining % ≤ 80%)	B (80%< substrate protein remaining %≤ 100%)	B (80%< substrate protein remaining %≤ 100%)	B (80%< substrate protein remaining %≤ 100%)	A (0% ≤ substrate protein remaining % ≤ 80%)	A (0% ≤ substrate protein remaining % ≤ 80%)						
O=C1CCN(N2Cc3cc(CN4CCN(c5ccc(Cl)cc5Cl)CC4)ccc3C2=O)C(=O)N1 [GT-06772, 1-(5-((4-(2,4-dichlorophenyl)piperazin-1-yl)methyl)-1-oxoisoindolin-2-yl)dihydropyrimidine-2,4(1H,3H)-dione]							A ("A" is defined as 0% ≤ substrate protein remaining % ≤ 80%)	A ("A" is defined as 0% ≤ substrate protein remaining % ≤ 80%)	A ("A" is defined as 0% ≤ substrate protein remaining % ≤ 80%)	A ("A" is defined as 0% ≤ substrate protein remaining % ≤ 80%)	B ("B" is defined as 80%< substrate protein remaining %≤ 100%)	A ("A" is defined as 0% ≤ substrate protein remaining % ≤ 80%)
O=C1CCN(N2Cc3cc(CN4CCN(c5nccc(Cl)c5F)CC4)ccc3C2=O)C(=O)N1 [GT-05358, 1-(5-((4-(4-chloro-3-fluoropyridin-2-yl)piperazin-1-yl)methyl)-1-oxoisoindolin-2-yl)dihydropyrimidine-2,4(1H,3H)-dione]							B ("B" is defined as 80%< substrate protein remaining %≤ 100%)	B ("B" is defined as 80%< substrate protein remaining %≤ 100%)	B ("B" is defined as 80%< substrate protein remaining %≤ 100%)	B ("B" is defined as 80%< substrate protein remaining %≤ 100%)	B ("B" is defined as 80%< substrate protein remaining %≤ 100%)	A ("A" is defined as 0% ≤ substrate protein remaining % ≤ 80%)
CC1CN(Cc2ccc3c(c2)CN(N2CCC(=O)NC2=O)C3=O)CC(C)N1C(c1ccccc1)c1ccccc1 (stereo not drawn) [GT-06431, 1-(5-((4-benzhydryl-3,5-dimethylpiperazin-1-yl)methyl)-1-oxoisoindolin-2-yl)dihydropyrimidine-2,4(1H,3H)-dione]							A ("A" is defined as 0% ≤ substrate protein remaining % ≤ 80%)	B ("B" is defined as 80%< substrate protein remaining %≤ 100%)	A ("A" is defined as 0% ≤ substrate protein remaining % ≤ 80%)	B ("B" is defined as 80%< substrate protein remaining %≤ 100%)	A ("A" is defined as 0% ≤ substrate protein remaining % ≤ 80%)	A ("A" is defined as 0% ≤ substrate protein remaining % ≤ 80%)
O=C1CCN(N2Cc3cc(CN4C5CC4CN(C(=O)C4=C(c6ccc(F)cc6)CCCC4)C5)ccc3C2=O)C(=O)N1 [GT-07376, 1-(5-((3-(4'-fluoro-3,4,5,6-tetrahydro-[1,1'-biphenyl]-2-carbonyl)-3,6-diazabicyclo[3.1.1]heptan-6-yl)methyl)-1-oxoisoindolin-2-yl)dihydropyrimidine-2,4(1H,3H)-dione]	A (0% ≤ substrate protein remaining % ≤ 80%)	B (80%< substrate protein remaining %≤ 100%)	B (80%< substrate protein remaining %≤ 100%)	B (80%< substrate protein remaining %≤ 100%)	B (80%< substrate protein remaining %≤ 100%)	B (80%< substrate protein remaining %≤ 100%)						
